The results in this text go back to publication PMC4876393, “Structure of the Dictyostelium Myosin-II Heavy Chain Kinase A (MHCK-A) α-kinase domain apoenzyme reveals a novel autoinhibited conformation” (Scientific Reports, 2016).

The target of data set [1] is T1, D663S (Dictyostelium discoideum, UniProt P42527, D663S).
T1 construct: gene mhkA; A-CAT: alpha-kinase domain and Thr825 autophosphorylation site of MHCK-A
T1 sequence (P42527 552-841 D663S): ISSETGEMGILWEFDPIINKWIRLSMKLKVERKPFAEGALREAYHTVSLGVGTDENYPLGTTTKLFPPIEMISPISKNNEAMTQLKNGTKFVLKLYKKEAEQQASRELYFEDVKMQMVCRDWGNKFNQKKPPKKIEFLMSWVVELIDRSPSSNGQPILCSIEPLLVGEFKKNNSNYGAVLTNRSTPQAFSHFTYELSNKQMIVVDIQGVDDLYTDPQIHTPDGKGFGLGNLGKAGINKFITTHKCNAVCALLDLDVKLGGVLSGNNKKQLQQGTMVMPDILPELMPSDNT
In words: Nucleotide binding assay with fluorescent mant-ADP on purified A-CAT, carried out as previously described (ref 51); at least 3 separate experiments. As to conditions: read-out: mant-ADP Kd; SD, n = 3. The method, then:
(§1) Assays were carried out at 22 °C in a buffer containing 2 mM MgCl2, 1 mM dithiothreitol and 20 mM TES, pH 7.0. Kinase assays contained 20 μM myelin basic protein (MBP), 0.5–2 μM A-CAT and 200 μM [γ-^32P]ATP (specific activity 100 cpm/pmol). At each time point, 20 μl aliquots of the reaction mixture were spotted onto squares of Whatman P81 phosphocellulose paper, which were then washed 1% phosphoric acid, immersed in ScintiVerse Universal LS Mixture (Fisher Scientific), and counted using a Beckman LS 9000 scintillation counter. Assays to measure A-CAT-Δ809 activity in the presence of the QQG(p)TMVMPD and QQG(p)TMSMPD peptides were carried out as described. ATPase activity was assayed using 250 μM ATP and release of inorganic phosphate (Pi) was measured using the Pi ColorLock Gold phosphate detection system (Innova Biosciences). Data from the initial linear portion of the time courses were used to calculate kinase and ATPase activity. Nucleotide binding assays using mant-ATP and mant-ADP were carried out as previously described. Results represent the mean and standard deviation of at least 3 separate experiments.

The target in data set [2] is T2, Y647A (Dictyostelium discoideum, UniProt P42527, Y647A).
T2 construct: gene mhkA; A-CAT: alpha-kinase domain and Thr825 autophosphorylation site of MHCK-A
T2 sequence (P42527 552-841 Y647A): T1 sequence (P42527 552-841 D663S)
Described as above. To be noted: read-out: mant-ADP Kd; SD, n = 3. As to the method: as §1

Data set [3] deals with T3, D663A (Dictyostelium discoideum, UniProt P42527, D663A).
T3 construct: gene mhkA; A-CAT: alpha-kinase domain and Thr825 autophosphorylation site of MHCK-A; expressed in E. coli
T3 sequence (P42527 552-841 D663A): T1 sequence (P42527 552-841 D663S)
The description is as above. As to conditions: read-out: mant-ADP Kd; SD, n = 3. The method, then:
as §1

Data set [4] concerns the target T4, A-CAT WT (Dictyostelium discoideum, UniProt P42527).
T4 construct: gene mhkA; A-CAT: alpha-kinase domain and Thr825 autophosphorylation site of MHCK-A; expressed in E. coli
T4 sequence (P42527 552-841): T1 sequence (P42527 552-841 D663S)
Described as above. To be noted: SD, n = 3. The method, then:
as §1

For a further data set, the target named is A-CAT Y647A. The experiment in a line: mant-nucleotide binding to A-CAT Y647A. To be noted: for Kd: A-CAT Y647A, 22 °C, 2 mM MgCl2, 1 mM dithiothreitol, 20 mM TES, pH 7.0, mean and standard deviation of at least 3 separate experiments; for effect of the Y647A mutation on nucleotide binding: compared with wild-type A-CAT. On the set-up: species or system Dictyostelium. The method, then: as §1

For a further data set, the target named is A-CAT D663S. In words: mant-nucleotide binding to A-CAT D663S. Also noted: species or system Dictyostelium. As to conditions: for Kd: A-CAT D663S, 22 °C, 2 mM MgCl2, 1 mM dithiothreitol, 20 mM TES, pH 7.0, mean and standard deviation of at least 3 separate experiments; for effect of the D663S mutation on nucleotide binding: compared with wild-type A-CAT. The method, then: as §1

A further data set has as its target A-CAT D663A. The experiment in a line: mant-nucleotide binding to A-CAT D663A. On the set-up: species or system Dictyostelium. To be noted: for Kd: A-CAT D663A, 22 °C, 2 mM MgCl2, 1 mM dithiothreitol, 20 mM TES, pH 7.0, mean and standard deviation of at least 3 separate experiments; for effect of the D663A mutation on nucleotide binding: compared with wild-type A-CAT. The method, then: as §1

The target in the next data set is A-CAT Y647F. The experiment in a line: mant-nucleotide binding to A-CAT Y647F. Also noted: species or system Dictyostelium. To be noted: 22 °C, 2 mM MgCl2, 1 mM dithiothreitol, 20 mM TES, pH 7.0, mean and standard deviation of at least 3 separate experiments. The method, then: as §1
Data set [5] addresses T1, D663S. The experiment in a line: Nucleotide binding assay with fluorescent mant-ATP on purified A-CAT, carried out as previously described (ref 51); at least 3 separate experiments. To be noted: read-out: mant-ATP Kd; SD, n = 3. As to the method:
as §1

The target of the next data set is T5, Y647F (Dictyostelium discoideum, UniProt P42527, Y647F).
T5 construct: gene mhkA; A-CAT: alpha-kinase domain and Thr825 autophosphorylation site of MHCK-A
T5 sequence (P42527 552-841 Y647F): T1 sequence (P42527 552-841 D663S)
The description is as above. As to conditions: read-out: mant-ATP Kd; SD, n = 3. As to the method:
as §1

Data set [6] has as its target T2, Y647A. The description is as above. To be noted: read-out: mant-ATP Kd; SD, n = 3. The method, then:
as §1

Data set [7] deals with T3, D663A. The data set is described as above. As to conditions: read-out: mant-ATP Kd; SD, n = 3. The method, then: as §1
Data set [8] concerns the target T4, A-CAT WT. Described as above. To be noted: SD, n = 3. As to the method: as §1
Data set [9] is described as follows: ATPase activity of A-CAT and mutants (phosphate release). The data set is classed as biochemical. As to conditions: 22 °C, 2 mM MgCl2, 20 mM TES, pH 7.0; Pi ColorLock Gold phosphate detection; mean and standard deviation of at least 3 separate experiments. The method, then:
as §1

For data set [10], the system named is myelin basic protein (MBP). The experiment in a line: Kinase activity of A-CAT and mutants towards myelin basic protein. As to conditions: 20 μM MBP, 0.5–2 μM A-CAT, [γ-^32P]ATP; 22 °C, pH 7.0; mean and standard deviation of at least 3 separate experiments. The data set is classed as biochemical. As to the method: as §1

For `CNc1ccccc1C(=O)O[C@H]1[C@@H](O)[C@H](n2cnc3c(N)ncnc32)O[C@@H]1COP(=O)(O)OP(=O)(O)O` [mant-ADP, 2'/3'-O-(N-methylanthraniloyl)adenosine 5'-diphosphate], the dissociation constant Kd – broadly, the equilibrium constant for the complex coming apart – was 12 ± 2 µM on D663S [1], 30 ± 2 µM on Y647A [2], 8 ± 2 µM on D663A [3] and 15 ± 2 µM at A-CAT WT [4].

On to `CNc1ccccc1C(=O)O[C@H]1[C@@H](O)[C@H](n2cnc3c(N)ncnc32)O[C@@H]1COP(=O)(O)OP(=O)(O)O` [mant-ADP], for which, on A-CAT Y647A, binding was put at a Kd of 30 ± 2 µM and the “effect of the Y647A mutation on nucleotide binding” value is recorded as “weakened the binding”. On A-CAT D663S, the Kd came out at 12 ± 2 µM and the “effect of the D663S mutation on nucleotide binding” value is “increased the affinity of A-CAT for nucleotide”. Further, on A-CAT D663A, binding was characterised by a dissociation constant (Kd) of 8 ± 2 µM and the “effect of the D663A mutation on nucleotide binding” value was “increased the affinity of A-CAT for nucleotide”. This molecule also came in with a Kd on A-CAT Y647F of 15 ± 2 µM.

For the molecule `CNc1ccccc1C(=O)O[C@H]1[C@@H](O)[C@H](n2cnc3c(N)ncnc32)O[C@@H]1CO[P@@](=O)(O)O[P@](=O)(O)OP(=O)(O)O` [mant-ATP, 2'/3'-O-(N-methylanthraniloyl)adenosine 5'-triphosphate], the dissociation constant (Kd) at D663S [5] worked out at 2.1 ± 0.5 µM; at Y647F it was 4.3 ± 1 µM; at Y647A [6], 10 ± 3 µM; on D663A [7], 3.2 ± 0.9 µM; at A-CAT WT [8] it was 4.8 ± 0.6 µM.

As for `CNc1ccccc1C(=O)O[C@H]1[C@@H](O)[C@H](n2cnc3c(N)ncnc32)O[C@@H]1COP(=O)(O)OP(=O)(O)OP(=O)(O)O` [mant-ATP], on A-CAT Y647A, the affinity, expressed as Kd, was 10 ± 3 µM and the “effect of the Y647A mutation on nucleotide binding” value was “weakened the binding”. Also, at A-CAT D663S, the Kd is 2.1 ± 0.5 µM and the “effect of the D663S mutation on nucleotide binding” value is on record as “increased the affinity of A-CAT for nucleotide”. On A-CAT D663A, the Kd stood at 3.2 ± 0.9 µM and the “effect of the D663A mutation on nucleotide binding” value is reported as “increased the affinity of A-CAT for nucleotide”. Further, binding on A-CAT Y647F was put at a Kd of 4.3 ± 1 µM.

B1: WT: α-kinase domain and Thr825 autophosphorylation site of MHCK-A (protein)
chain: T1 sequence (P42527 552-841 D663S)
modifications: phosphothreonine at 612 (P-Thr612); phosphoaspartate at 663 (P-Asp663)
notes: α-kinase domain and Thr825 autophosphorylation site of MHCK-A
On to B1, for which the “ATPase Activity kcat” value in data set [9] came out at 0.0317 ± 0.0017 s⁻¹. Besides, the “Kinase Activity kcat” value in [10] came out at 0.0967 ± 0.0067 s⁻¹.
